Here are results for 1 molecule from US20210386668A1, “Cyclodextrin for use in the treatment and prevention of late phase bronchoconstriction in allergen-induced asthma” (Universite de Liege, priority 2020, published 2021).

This data set relates to healthy subjects. Nature of the data set: Phase 1 clinical trial, single and multiple HPBCD inhalation. The class given is in vivo, human. An excerpt: Clinical trial protocols have been approved by an independent ethical committee (CHU Liege—University of Liege) in accordance with GCPs, Declaration of Helsinki and European regulations (EudraCT). All participants gave written informed consent before any study-specific procedure. For the phase 1 clinical trial, 8 healthy subjects (4 women and 4 men) from 18 to 40 years were recruited and enrolled in the study at the University Hospital of Liege (Belgium). Patients were randomized and received first the placebo (NaCl 0.9%) or HPBCD at 2.5 mM and 8 days after, the opposite treatment. After 1 week, all patients received HPBCD at 15 mM. One month later, all patients received HPBCD at 15 mM during 5 consecutive days. Apyrogenic and sterile HPBCD powder was diluted with NaCl 0.9% before inhalation (8 ml) with an ultrasonic nebulizer (Devilbiss 2000). General symptoms, asthma scores (ACQ), dyspnea, chest Rx, clinical biology, ECG, vital signs, spirometry, NO, sputum (induced by NaCl 4.5%) were analyzed after treatment periods. The second clinical trial (phase 2a-proof of concept) was a double-blinded, cross-over, placebo-controlled study. 17 mild to moderate asthmatic patients were included in the study at two different sites (University Hospital of Liege and University Hospital Erasme) in Belgium. Characterization visits consisted of dyspnea symptoms recording, ECG, chest Rx, clinical biology, spirometry and vital signs analysis. PD20 (provocative dose that causes a 20% fall in FEV1 from the saline alone value) to inhaled allergen was determined. […] The PD20 of the allergen was calculated from a cumulative dose-response curve, as described previously, Cataldo et al., Matrix metalloproteinase-9, but not tissue inhibitor of matrix metalloproteinase-1, increases in the sputum from allergic asthmatic patients after allergen challenge, Chest. 2002; 122(5):1553-9. All […] received a cumulative concentration of Dermatophagoides pteronyssinus with a reactivity index of 6. After 14 days wash-out period, patients were randomly divided into two groups and received either HPBCD 15 mM or Placebo (NaCl 0.9%) by inhalation (ultrasonic nebulizer (Devilbiss 2000)) twice daily. At the end of this treatment period, lung function (FEV1) was analyzed after allergen (HDM) challenge under the supervision of experienced respiratory clinical physiologists. FEV1 was measured after allergen inhalation challenge at 5, 15, 30, 60, 120, 180, 240, 300 and 360 min. After 28 days wash-out period, patients received the opposite treatment for another 14 days and the FEV1 following allergen challenge was evaluated. All clinical parameters were examined after each treatment period. The endpoint of this proof of concept study was changes in FEV1 over 0-360 min post-allergen challenges. FEV1 in early phase (0-60 min) and late phase (180-360 min) were expressed as: area under the FEV1-versus-time curve (AUC), maximum percentage fall and average percentage fall (calculated by dividing the area under the curve of the percentage fall in FEV1 by the duration of the response period). One patient who received placebo had negative maximum FEV1 decrease and negative average percentage fall in FEV1. These negative values were truncated to 0. Patients had access to […] (salbutamol 100 μg) throughout the study as an «as needed» treatment.
Data are presented as mean±SEM unless specified. The differences between mean values were estimated using a two-tailed Mann-Whitney test (animal and in vitro experiments) unless specified. All animal experiments were repeated at least 2 times; n 6 in each experimental group. ANOVA Friedman test (single dose) and Wilcoxon signed rank test (multiple doses) were used to analyze results obtained during the phase 1 clinical trial. One-tailed Wilcoxon matched pairs test was used to evaluate intra-individual differences in the proof of concept clinical trial. A P value less than 0.05 was considered significant. […]

[1] abbreviates: multiple dose HPBCD 15 mM, after 5 days inhalation.
Setting [2] is: multiple dose HPBCD 15 mM, after 5 days inhalation, mean ± SD.
[3] abbreviates: single dose, HPBCD 2.5 mM, mean ± SD.
Where [4] appears, read: single dose, HPBCD 15 mM, mean ± SD.

For the molecule `CC(O)COC[C@H]1O[C@@H]2O[C@H]3[C@H](O)[C@@H](O)[C@@H](O[C@H]4[C@H](O)[C@@H](O)[C@@H](O[C@H]5[C@H](O)[C@@H](O)[C@@H](O[C@H]6[C@H](O)[C@@H](O)[C@@H](O[C@H]7[C@H](O)[C@@H](O)[C@@H](O[C@H]8[C@H](O)[C@@H](O)[C@@H](O[C@H]1[C@H](O)[C@H]2O)O[C@@H]8COCC(C)O)O[C@@H]7COCC(C)O)O[C@@H]6COCC(C)O)O[C@@H]5COCC(C)O)O[C@@H]4COCC(C)O)O[C@@H]3COCC(C)O` (stereo partly drawn) [HPBCD, 2-hydroxypropyl-beta-cyclodextrin], under setting [1], the “Eosinophils (sputum) 5 h after inhalation” value (from here on “Eosinophils (sputum) 5 h”) amounted to 0.00%, the QT is listed as 393.50 ms and the QtTc is on record as 393.30 ms. Under setting [2], this molecule displayed an FEV1 15 min after inhalation of 4.13 ± 0.87 L, an FEV1 1 h after inhalation of 4.07 ± 0.82 L, an FEV1 3 h after inhalation of 4.11 ± 0.87 L and an FEV1 5 h after inhalation of 4.1 ± 0.87 L. In addition, the “No measurements (ppb) 15 min after inhalation” value (shortened to “No measurements (ppb) 15 min”) under setting [2] worked out at 25.16 ± 9.76 ppb. For the same molecule, under setting [3], the “Eosinophils (sputum) 5 h” value was determined as 0.00 ± 0.00%, the FEV1 15 min after inhalation came to 4.08 ± 0.87 L, the FEV1 1 h after inhalation came to 4.11 ± 0.83 L and the FEV1 3 h after inhalation was 4.1 ± 0.82 L. Further, the FEV1 5 h after inhalation under setting [3] turned out to be 4.11 ± 0.87 L. The “No measurements (ppb) 15 min” value (single dose, HPBCD 2.5 mM, mean ± SD, n = 8) came to 23.85 ± 7.56 ppb. In addition, under setting [4], the “Eosinophils (sputum) 5 h” value is listed as 0.20 ± 0.49%, the FEV1 15 min after inhalation came to 4.01 ± 0.87 L, the FEV1 1 h after inhalation was 4.04 ± 0.86 L and the FEV1 3 h after inhalation is 4.07 ± 0.85 L. Moreover, the FEV1 5 h after inhalation under setting [4] came to 4.08 ± 0.92 L. Further, the “No measurements (ppb) 15 min” value (single dose, HPBCD 15 mM, mean ± SD, n = 8) is 28.48 ± 17.92 ppb.
